From patent US20250064740A1, “MULTI-VESICULAR LIPID NANOPARTICLE TOLEROGENIC VACCINES FOR INDUCTION OF SYSTEMIC IMMUNE TOLERANCE IN VIVO” (KARMA BIOTECHNOLOGIES, priority 2022, published 2025)

Assays:
[1] = system: murine bone marrow-derived macrophages; experiment: In vitro immunogenicity: TNFa release by ELISA; assay type: cell-based, mouse; details: positive controls
Text: TNFa release was quantitated by ELISA. Bar charts show mean TNFa release per treatment group (n=3 replicates per treatment group). Error bars indicate SEM. Filled circles indicate mean TNFa release for each individual replicate for each treatment group. Colors of filled circles indicate treatment group.

HepG2 cells = experiment: SNIPR [pEGFP] transfection of a liver cell line with caveolin inhibitor; assay type: cell-based; details: MbC 15 uM, 1 h pretreatment, 48 h
Jurkat cells = experiment: SNIPR uptake/transfection of a T cell line with endocytosis inhibitors; assay type: cell-based; details: MbC 15 uM, 1 h pretreatment

Substance | TNFa release [1] | Transfection of a liver cell line by pDNA-loaded SNIPR nanoparticles in presence of inhibitor (HepG2 cells) | Transfection of a T cell line by pDNA-loaded SNIPR nanoparticles in presence of inhibitor (Jurkat cells)
lipopolysaccharide [LPS] | strongly elicited | – | –
Methyl-beta-cyclodextrin [MbC] | – | abrogated | abrogated
